#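 In this assay, cells in 96-well plates receive the compound at five concentrations for 48 hours. Endpoints are linearly interpolated between the surrounding concentrations. Definition used: TGI = concentration required for complete inhibition of growth.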
# Legend:
# Experiment in all cases: NCI tumour cell line growth inhibition, 48 h
# A498 renal = system: A498 renal
# K-562 leukemia = system: K-562 leukemia
# HL-60(TB) leukemia = system: HL-60(TB) leukemia
# RPMI-8226 leukemia = system: RPMI-8226 leukemia
# SF-295 CNS = system: SF-295 CNS
# HCC-2998 colon = system: HCC-2998 colon
# M14 melanoma = system: M14 melanoma
# ACHN renal = system: ACHN renal
# SF-268 CNS = system: SF-268 CNS
# MALME-3M melanoma = system: MALME-3M melanoma
# T-47D breast = system: T-47D breast
# OVCAR-4 ovarian = system: OVCAR-4 ovarian
# IGROV1 ovarian = system: IGROV1 ovarian
# HCT-116 colon = system: HCT-116 colon
# CCRF-CEM leukemia = system: CCRF-CEM leukemia
# SK-OV-3 ovarian = system: SK-OV-3 ovarian
# SNB-19 CNS = system: SNB-19 CNS
# MDA-MB-231 breast = system: MDA-MB-231 breast
# NCI-H522 lung = system: NCI-H522 lung
# RXF 393 renal = system: RXF 393 renal
Compound,TGI (A498 renal),TGI (K-562 leukemia),TGI (HL-60(TB) leukemia),TGI (RPMI-8226 leukemia),TGI (SF-295 CNS),TGI (HCC-2998 colon),TGI (M14 melanoma),TGI (ACHN renal),TGI (SF-268 CNS),TGI (MALME-3M melanoma),TGI (T-47D breast),TGI (OVCAR-4 ovarian),TGI (IGROV1 ovarian),TGI (HCT-116 colon),TGI (CCRF-CEM leukemia),TGI (SK-OV-3 ovarian),TGI (SNB-19 CNS),TGI (MDA-MB-231 breast),TGI (NCI-H522 lung),TGI (RXF 393 renal)
CCC(C)C1NC(=O)C(NC(=O)c2c3[nH]c4c(C(=O)NC5C(=O)NC(C(C)CC)C(=O)N6CCCC6C(=O)N(C)CC(=O)N(C)C(C(C)C)C(=O)OC5C)ccc(C)c4oc-3c(C)c(=O)c2=O)C(C)OC(=O)C(C(C)C)N(C)C(=O)CN(C)C(=O)C2CCCN2C1=O (stereo not given),39.4 µM,> 65 µM,52.2 µM,35.1 µM,> 93 µM,27.7 µM,40.5 µM,65.2 µM,97.4 µM,22.8 µM,> 40.5 µM,> 89.1 µM,> 100 µM,40.4 µM,9.81 µM,> 100 µM,> 100 µM,55.2 µM,5.06 µM,25 µM
O=C1NC(=O)C(c2c[nH]c3ccccc23)=C1c1cn(C(c2ccccc2)(c2ccccc2)c2ccccc2)cn1,18.3 µM,28.7 µM,20.4 µM,10.4 µM,19.8 µM,16 µM,16.3 µM,26.6 µM,33.2 µM,23.2 µM,23.7 µM,17.5 µM,26.2 µM,13.1 µM,17.4 µM,57 µM,65.3 µM,25.7 µM,22.9 µM,36.1 µM
COC(=O)CC1C=CC(C)(OC)OO1 (stereo not given),> 100 µM,> 100 µM,> 100 µM,> 100 µM,> 100 µM,> 100 µM,> 100 µM,> 100 µM,> 100 µM,> 100 µM,> 100 µM,> 100 µM,> 100 µM,> 100 µM,97.9 µM,> 100 µM,> 100 µM,> 100 µM,55.5 µM,> 100 µM
CC(=O)O/C(=C1\C[C@H]2[C@@H]3CC=C4C[C@@H](OC(C)=O)CC[C@]4(C)[C@H]3CC[C@]2(C)C1=O)C(F)(F)F,45.1 µM,15.1 µM,13.6 µM,15.8 µM,35.9 µM,19 µM,15.2 µM,48 µM,19.9 µM,9.53 µM,21.2 µM,61.4 µM,19.8 µM,18.8 µM,13.9 µM,44.5 µM,40.6 µM,27.6 µM,8.99 µM,15 µM
O=C(Nc1nncs1)NS(=O)(=O)n1c(=S)sc2ccccc21,> 100 µM,> 100 µM,> 100 µM,> 100 µM,> 100 µM,> 100 µM,> 100 µM,> 100 µM,> 100 µM,> 100 µM,> 100 µM,> 100 µM,> 100 µM,> 100 µM,75.7 µM,> 100 µM,> 100 µM,> 100 µM,> 100 µM,> 100 µM
CCOC(=O)CO/N=C1/C(c2c(O)[nH]c3ccccc23)=Nc2ccccc21,38.2 µM,> 100 µM,> 100 µM,> 100 µM,> 100 µM,> 100 µM,> 100 µM,> 100 µM,> 100 µM,> 100 µM,45.8 µM,16.5 µM,79.2 µM,> 100 µM,> 100 µM,49.2 µM,89.4 µM,43.3 µM,> 100 µM,29.2 µM
